In US7144876B2, “3,5-Disubstituted-[1,2,4]-oxadiazoles and analogs as activators of caspases and inducers of apoptosis and the use thereof” (Cytovia, Inc., priority 2002, dated 2006):

What was measured:
MX1 = assay: Inhibition of cell proliferation (GI50), CellTiter 96 AQueous One Solution; assay type: cell-based; conditions: Homo sapiens; MX1 cells, 48 h incubation; dose for 50% inhibition of cell proliferation
T-47D [1] = assay: Caspase cascade activation assay (N-(Ac-DEVD)-N'-ethoxycarbonyl-R110 fluorogenic substrate) in solid tumor cells; assay type: cell-based, Human; conditions: T-47D cells, 48 h incubation; for EC50: Homo sapiens, T47D, sigmoidal dose-response, read-out: Caspase potency EC50; for Caspase activity (Ratio): ratio of net RFU of test compound to that of control samples
Experimental: Human breast cancer cell lines T-47D and ZR-75-1 were grown according to media component mixtures designated by American Type Culture Collection+10% FCS (Invitrogen Corporation), in a 5% CO2-95% humidity incubator at 37° C. T-47D and ZR-75-1 cells were maintained at a cell density between 50 and 80% confluency at a cell density of 0.1 to 0.6×10^6 cells/mL. Cells were harvested at 600×g and resuspended at 0.65×10^6 cells/mL into appropriate media+10% FCS. An aliquot of 45 μl of cells was added to a well of a 96-well microtiter plate containing 2.5 μl of a 10% DMSO in RPMI-1640 media solution containing 0.16 to 100 μM of 3-(3-amino-4-chloro-phenyl)-5-(3-chlorothiophen-2-yl)-[1,2,4]-oxadiazole or other test compound (0.016 to 10 μM final). An aliquot of 22.5 μL of cells was added to a well of a 384-well microtiter plate containing 2.5 μl of a 10% DMSO in RPMI-1640 media solution without test compound as the control sample. The samples were mixed by agitation and then incubated at 37° C. for 48 h in a 5% CO2-95% humidity incubator. After incubation, the samples were removed from the incubator and 25 μL of a solution containing 14 μM of N-(Ac-DEVD)-N′-ethoxycarbonyl-R110 (SEQ ID No.:1) fluorogenic substrate (Maxim, Inc.; WO99/18856), 20% sucrose (Sigma), 20 mM DTT (Sigma), 200 mM NaCl (Sigma), 40 mM Na PIPES buffer pH 7.2 (Sigma), and 500 μg/mL lysolecithin (Calbiochem) was added. The samples were mixed by agitation and incubated at room temperature. Using a fluorescent plate reader (Model SpectraMax Gemini, Molecular Devices), an initial reading (T=0) was made approximately 1–2 min after addition of the substrate solution, employing excitation at 485 nm and emission at 530 nm, to determine the background fluorescence of the control sample. After the 3 h incubation, the samples were read for fluorescence as above (T=3 h).
The Relative Fluorescence Unit values (RFU) were used to calculate the sample readings as follows: RFU(T=3h)−Control RFU(T=0)=Net RFU(T=3h)
The activity of caspase cascade activation was determined by the ratio of the net RFU value for 3-(3-amino-4-chloro-phenyl)-5-(3-chlorothiophen-2-yl)-[1,2,4]-oxadiazole or other test compound to that of control samples. The EC50 (nM) was determined by a sigmoidal dose-response calculation (Prism 2.0, GraphPad Software Inc.).

T-47D [2] = assay: Inhibition of cell proliferation (GI50), CellTiter 96 AQueous One Solution; assay type: cell-based; conditions: Homo sapiens, T47D; T-47D cells, 48 h incubation; dose for 50% inhibition of cell proliferation
Experimental: T-47D and SKBr-3 cells were grown and harvested as in Example 72. An aliquot of 90 μL of cells (2.2×10^4 cells/mL) was added to a well of a 96-well microtiter plate containing 10 μl of a 10% DMSO in RPMI-1640 media solution containing 1 nM to […] of 3-(3-amino-4-chloro-phenyl)-5-(3-chlorothiophen-2-yl)-[1,2,4]-oxadiazole (0.1 nM to 10 μM final). An aliquot of 90 μL of cells was added to a well of a 96-well microtiter plate containing 10 μL of a 10% DMSO in RPMI-1640 media solution without compound as the control sample for maximal cell proliferation (AMax). The samples were mixed by agitation and then incubated at 37° C. for 48 h in a 5% CO2-95% humidity incubator. After incubation, the samples were removed from the incubator and 20 μL of CellTiter 96 AQUEOUS One Solution Cell Proliferation™ reagent (Promega) was added. The samples were mixed by agitation and incubated at 37° C. for 2–4 h in a 5% CO2-95% humidity incubator. Using an absorbance plate reader (Model 1420 Wallac Instruments), an initial reading (T=0) was made approximately 1–2 min after addition of the solution, employing absorbance at 490 nm. This determines the possible background absorbance of the test compounds. No absorbance for 3-(3-amino-4-chloro-phenyl)-5-(3-chlorothiophen-2-yl)-[1,2,4]-oxadiazole was found at 490 nm. After the 2–4 h incubation, the samples were read for absorbance as above (ATest).
Baseline for GI50 (dose for 50% inhibition of cell proliferation) of initial cell numbers were determined by adding an aliquot of 90 μL of cells or 90 μL of media, respectively, to wells of a 96-well microtiter plate containing 10 μL of a 10% DMSO in RPMI-1640 media solution. The samples were mixed by agitation and then incubated at 37° C. for 0.5 h in a 5% CO2-95% humidity incubator. After incubation, the samples were removed from the incubator and 20 μL of CellTiter 96 AQUEOUS One Solution Cell Proliferation™ reagent (Promega) was added. The samples were mixed by agitation and incubated at 37° C. for 2–4 h in a 5% CO2-95% humidity incubator. Absorbance was read as above, (AStart) defining absorbance for initial cell number used as baseline in GI50 determinations.
Calculation: GI50 (dose for 50% inhibition of cell proliferation) is the concentration where [(ATest−AStart)/(AMax−Astart)]=0.5.

Compound | EC50 (T-47D [1]) [µM] | GI50 (T-47D [2]) [µM] | GI50 (MX1) [µM] | Caspase activity (Ratio) (T-47D [1])
Nc1cc(-c2noc(-c3sccc3Cl)n2)ccc1Cl [Example 1, 3-(3-Amino-4-chloro-phenyl)-5-(3-chlorothiophen-2-yl)-[1,2,4]-oxadiazole] | 1.98 | 0.894 | 7 | 11.9
CN(C)c1cc(-c2noc(-c3sccc3Cl)n2)ccc1Cl [Example 2, 5-(3-Chlorothiophen-2-yl)-3-(3-dimethylamino-4-chloro-phenyl)-[1,2,4]-oxadiazole] | 1.52 | 0.36 | 5 | 15.1
CN(C)c1cc(-c2noc(-c3occc3Br)n2)ccc1Cl [Example 4, 5-(3-Bromofuran-2-yl)-3-(3-dimethylamino-4-chloro-phenyl)-[1,2,4]-oxadiazole] | 1.85 | 0.415 | 0.21 | 11.9
N#Cc1cc(-c2noc(-c3sccc3Cl)n2)ccc1Cl [Example 7, 5-(3-Chlorothiophen-2-yl)-3-(4-chloro-3-cyano-phenyl)-[1,2,4]-oxadiazole] | 4 |  |  | 3.4
Fc1cc(-c2noc(-c3sccc3Cl)n2)ccc1Cl [Example 9, 5-(3-Chlorothiophen-2-yl)-3-(4-chloro-3-fluoro-phenyl)-[1,2,4]-oxadiazole] | 3.27 | 0.514 | 0.899 | 9.0
O=[N+]([O-])c1cc(-c2noc(-c3sccc3Cl)n2)ccc1Cl [Example 10, 5-(3-Chlorothiophen-2-yl)-3-(4-chloro-3-nitro-phenyl)-[1,2,4]-oxadiazole] | 3.75 |  |  | 9.9
Clc1ccc(C=Cc2noc(-c3sccc3Cl)n2)cc1 [Example 13, 3-[2-(4-Chloro-phenyl)-vinyl]-5-(3-chlorothiophen-2-yl)-[1,2,4]-oxadiazole] | 5.55 |  |  | 4.4

Now from value to compound, other results behind:

EC50 (T-47D [1]) [µM] | GI50 (T-47D [2]) [µM] | Compound | GI50 (MX1) [µM] | Caspase activity (Ratio) (T-47D [1])
5.04 |  | Clc1ccsc1-c1nc(N2CCCCC2)no1 [Example 18, 5-(3-Chlorothiophen-2-yl)-3-(1-piperidinyl)-[1,2,4]-oxadiazole] |  | 2.8
3.32 |  | CC1CCN(c2noc(-c3sccc3Cl)n2)CC1 [Example 22, 5-(3-Chlorothiophen-2-yl)-3-(4-methylpiperidin-1-yl)-[1,2,4]oxadiazole] |  | 5.4
0.818 |  | Cc1cc(Cl)ccc1-c1noc(-c2sccc2Cl)n1 [Example 43, 3-(4-Chloro-2-methyl-phenyl)-5-(3-chlorothiophen-2-yl)-[1,2,4]oxadiazole] |  | 7.9
2.44 |  | Cc1cccnc1-c1noc(-c2sccc2Cl)n1 [Example 47, 5-(3-Chlorothiophen-2-yl)-3-(3-methyl-pyridin-2-yl)-[1,2,4]oxadiazole] |  | 4.5
1.01 |  | Cc1cc(Cl)ccc1-c1noc(-c2occc2Br)n1 [Example 49, 5-(3-Bromofuran-2-yl)-3-(4-chloro-2-methyl-phenyl)-[1,2,4]oxadiazole] |  | 11.9
0.797 |  | Cc1cc(Cl)cnc1-c1noc(-c2occc2Br)n1 [Example 50, 5-(3-Bromofuran-2-yl)-3-(5-chloro-3-methyl-pyridin-2-yl)-[1,2,4]oxadiazole] |  | 5.9
0.846 |  | Cc1cccnc1-c1noc(-c2occc2Br)n1 [Example 57, 5-(3-Bromofuran-2-yl)-3-(3-methyl-pyridin-2-yl)-[1,2,4]oxadiazole] |  | 6.4
